# Read-outs that look alike come from different tables or passages of the source.
# What was measured:
# [1] = target: xanthine oxidase (Bos taurus, UniProt P80457); test: xanthine oxidase inhibitory activity (absorbance at 290 nm, xanthine substrate); assay type: biochemical; conditions: for Relative intensity: relative to 1.00 (XOI-A and allopurinol), from concentration for 50% inhibitory rate; for activity compared with known xanthine oxidase inhibitors allopurinol, luteolin / activity compared with quercetin: as seen from Table 1; for Total activity: purification from Perilla frutescens (3.73 kg fresh weight); for Total activity / Specific activity: 1 U = activity required for inhibiting 50% of xanthine oxidase; for Specific activity: purification from Perilla frutescens
# Protocol: This xanthine oxidase inhibitory activity can be determined, for example, as follows:
# Enzyme solution: An enzyme solution is prepared by dissolving 150 μl of xanthine oxidase (15.2 units/ml) in 10 ml of 1/15 M phosphate buffer (pH 7.5).
# Substrate solution: A substrate solution is prepared by heating 22.8 mg of xanthine in 1 liter of water to dissolve it.
# Determination: 0.1 ml of the enzyme solution and 2.9 ml of phosphate buffer (the same as that described above) are admixed with 1.0 ml of the sample solution and the mixture is incubated at 37° C. for 10 minutes.
# Then, 1 ml of the substrate solution preincubated at 37° C. is added to this reaction mixture and, after reaction for 30 minutes, an absorbance at 290 nm (D1) is measured.
# Separately, an absorbance at 290 nm (D2) of a reaction mixture obtained by the similar reaction procedure using a heat inactivated enzyme, an absorbance (D3) without addition of the sample solution, and absorbance (D4) of a reaction mixture obtained by using a heat-inactivated enzyme without addition of the sample solution are measured. By using the values obtained by these measurements, the inhibitory rate of xanthine oxidase is calculated by using the following equation:
# Inhibitory Rate (%)={1-(D1 -D2)/(D3 -D4 }×100
# In Table 2, 1 U represents the activity required for inhibiting 50% of xanthine oxidase.
# [2] = solubility in solvents; assay type: physicochemical
# [3] = xanthine oxidase, pH 7.5, 37° C., reaction for 30 minutes, read-out: Concentration for 50% inhibitory rate (converted)
# Sequence of xanthine oxidase (P80457 whole entry): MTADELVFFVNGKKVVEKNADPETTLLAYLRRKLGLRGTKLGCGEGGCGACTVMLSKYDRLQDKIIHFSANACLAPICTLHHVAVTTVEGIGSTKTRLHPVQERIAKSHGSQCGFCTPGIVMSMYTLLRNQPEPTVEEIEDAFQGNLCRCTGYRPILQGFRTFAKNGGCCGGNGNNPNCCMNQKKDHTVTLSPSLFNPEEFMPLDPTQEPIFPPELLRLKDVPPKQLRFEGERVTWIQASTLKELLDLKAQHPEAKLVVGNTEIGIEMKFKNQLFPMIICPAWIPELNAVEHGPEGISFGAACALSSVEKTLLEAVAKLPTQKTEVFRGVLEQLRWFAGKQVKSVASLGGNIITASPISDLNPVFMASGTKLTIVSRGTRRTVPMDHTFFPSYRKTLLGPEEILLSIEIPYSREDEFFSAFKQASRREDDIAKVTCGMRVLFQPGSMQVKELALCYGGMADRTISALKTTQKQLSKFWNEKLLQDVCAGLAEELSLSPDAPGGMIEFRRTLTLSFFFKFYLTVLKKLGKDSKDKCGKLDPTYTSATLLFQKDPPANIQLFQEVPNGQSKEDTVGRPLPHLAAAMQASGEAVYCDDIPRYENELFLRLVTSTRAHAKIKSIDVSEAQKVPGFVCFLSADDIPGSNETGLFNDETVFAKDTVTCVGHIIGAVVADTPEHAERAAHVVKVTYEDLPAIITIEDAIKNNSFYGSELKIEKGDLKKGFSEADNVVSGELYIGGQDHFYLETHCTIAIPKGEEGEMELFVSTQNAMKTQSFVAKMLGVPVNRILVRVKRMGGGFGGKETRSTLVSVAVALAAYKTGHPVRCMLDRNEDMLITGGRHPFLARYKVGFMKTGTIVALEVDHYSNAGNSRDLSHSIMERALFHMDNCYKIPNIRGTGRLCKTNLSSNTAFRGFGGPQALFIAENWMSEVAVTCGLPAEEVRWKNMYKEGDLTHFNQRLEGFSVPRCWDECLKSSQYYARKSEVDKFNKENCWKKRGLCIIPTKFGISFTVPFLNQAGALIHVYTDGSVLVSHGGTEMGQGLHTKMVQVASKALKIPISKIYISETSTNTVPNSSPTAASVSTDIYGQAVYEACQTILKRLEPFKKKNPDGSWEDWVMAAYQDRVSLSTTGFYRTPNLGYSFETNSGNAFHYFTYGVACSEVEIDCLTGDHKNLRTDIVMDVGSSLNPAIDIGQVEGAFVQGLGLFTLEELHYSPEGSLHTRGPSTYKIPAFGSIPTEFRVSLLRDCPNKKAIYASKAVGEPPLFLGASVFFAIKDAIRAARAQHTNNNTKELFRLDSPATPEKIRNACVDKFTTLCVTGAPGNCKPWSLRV
SMILES,IC50 [1] [nM],Relative intensity [1],"activity compared with known xanthine oxidase inhibitors allopurinol, luteolin [1]",activity compared with quercetin [1],Total activity [1],Specific activity [1] [μ/mg],"Specific activity, figure in parentheses (relative to ethanol extract = 1) ([1]; purification step)","Total activity, figure in parentheses (relative to ethanol extract = 100) ([1]; purification step, ethanol extract = 100)","IC50 [1, 3] [nM]","solubility in methanol, propanol, acetone, ethyl acetate or acetonitrile [2]","solubility in water, chloroform or hexane [2]"
"O=c1cc(-c2ccc(O)c(O)c2)oc2cc(O)cc(O)c12 [Luteolin, luteolin, reference compound]",384,0.19,–,–,–,–,–,–,–,–,–
"O=C(/C=C/c1ccc(O)c(O)c1)O/C=C\c1ccc(O)c(O)c1 [XOI-A, (Z,E)-2-(3,4-dihydroxyphenyl)ethenylester of 3-(3,4-dihydroxyphenyl)-2-propenoic acid]",–,–,comparable to that of allopurinol,superior to that of quercetin,1.96 × 10^6 (U),46600,222,6,66.8,readily soluble,slightly soluble
"O=C(/C=C/c1ccc(O)c(O)c1)O/C=C\c1cc(O)cc(O)c1 [XOI-B, (Z,E)-2-(3,5-dihydroxyphenyl)ethenylester of 3-(3,4-dihydroxyphenyl)-2-propenoic acid]",–,0.17,almost the same as that of luteolin,superior to that of quercetin,0.09 × 10^6 (U),8040,38,–,395,readily soluble,slightly soluble

# Source: patent publication US5212201A, “Xanthine oxidase inhibitor” (priority 1989, dated 1993)
